The target of one assay is T1, Human σ1 receptor (Homo sapiens, UniProt Q99720).
T1 construct: expressed in transfected cells; host or cells: HEK-293
Description: Human σ1 receptor radioligand assay ([3H](+)-pentazocine binding, transfected HEK-293 membranes). To be noted: binding to σ1 receptor expressed as Ki; + also covers inhibition between 1% and 50%; read-out: σ-1 binding. In outline:
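Ki was derived from five test concentrations, or % inhibition was measured at a single 1 or 10 μM dose, against 5 nM [3H](+)-pentazocine. Incubation was 120 min at 37° C in 50 mM Tris-HCl pH 8 with 7 μg HEK-293 membranes, and 10 μM haloperidol set non-specific binding. Bound radioactivity was counted after filtration.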

In assay [1] the target is Human α2δ-1 subunit of Cav2.2 calcium channel (Homo sapiens, UniProt P54289). The assay can be described thus: Human α2δ-1 subunit of Cav2.2 calcium channel assay ([3H]-gabapentin binding). To be noted: binding to the α2δ-1 subunit of voltage-gated calcium channels expressed as Ki; + also covers inhibition between 1% and 50%. The method in brief: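 Displacement of 15 nM [3H]-gabapentin from human α2δ-1-enriched membranes (Hepes-KOH 10 mM, pH 7.4; 27 °C, 60 min) read by filter binding and radioactivity counting. Values are single-point % inhibition (1 or 10 μM) or five-point Ki; 10 μM pregabalin sets NSB.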
Chain of Human α2δ-1 subunit of Cav2.2 calcium channel (P54289 25-1103): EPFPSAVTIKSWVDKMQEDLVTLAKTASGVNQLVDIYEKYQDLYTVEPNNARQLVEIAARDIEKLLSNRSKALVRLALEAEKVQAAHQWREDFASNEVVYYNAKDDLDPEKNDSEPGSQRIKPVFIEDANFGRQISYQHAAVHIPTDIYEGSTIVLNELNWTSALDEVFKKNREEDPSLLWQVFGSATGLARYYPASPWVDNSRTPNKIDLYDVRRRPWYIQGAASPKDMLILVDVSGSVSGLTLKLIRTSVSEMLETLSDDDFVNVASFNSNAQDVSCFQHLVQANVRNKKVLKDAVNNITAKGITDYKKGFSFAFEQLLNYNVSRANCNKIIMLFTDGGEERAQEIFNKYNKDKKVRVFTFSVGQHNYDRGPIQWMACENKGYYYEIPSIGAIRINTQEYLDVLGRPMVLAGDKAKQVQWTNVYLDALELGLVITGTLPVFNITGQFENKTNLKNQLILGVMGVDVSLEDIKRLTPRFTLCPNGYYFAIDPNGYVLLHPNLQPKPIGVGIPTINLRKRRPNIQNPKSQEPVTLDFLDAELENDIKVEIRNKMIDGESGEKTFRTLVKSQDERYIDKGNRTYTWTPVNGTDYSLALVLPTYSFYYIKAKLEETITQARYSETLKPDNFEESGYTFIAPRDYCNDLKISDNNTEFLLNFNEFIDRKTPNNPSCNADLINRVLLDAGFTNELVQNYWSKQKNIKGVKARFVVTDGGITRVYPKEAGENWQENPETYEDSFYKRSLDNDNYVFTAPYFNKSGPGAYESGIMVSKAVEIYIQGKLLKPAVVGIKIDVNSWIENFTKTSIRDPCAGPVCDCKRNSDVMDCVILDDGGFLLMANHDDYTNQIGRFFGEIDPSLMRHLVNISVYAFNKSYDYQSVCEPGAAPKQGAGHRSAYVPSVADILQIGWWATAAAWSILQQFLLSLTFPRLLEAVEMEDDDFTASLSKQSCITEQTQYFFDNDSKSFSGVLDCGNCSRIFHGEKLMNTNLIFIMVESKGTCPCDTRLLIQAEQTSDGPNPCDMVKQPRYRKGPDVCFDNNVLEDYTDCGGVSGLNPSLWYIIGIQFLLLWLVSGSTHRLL

T1 sequence (Q99720 whole entry): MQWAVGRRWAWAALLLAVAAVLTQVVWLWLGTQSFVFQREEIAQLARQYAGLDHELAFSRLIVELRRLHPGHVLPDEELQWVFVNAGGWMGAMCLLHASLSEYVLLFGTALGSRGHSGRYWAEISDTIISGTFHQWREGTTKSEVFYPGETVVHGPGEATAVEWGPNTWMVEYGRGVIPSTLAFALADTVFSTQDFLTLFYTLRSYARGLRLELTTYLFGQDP

Take `Clc1cccc(CN2CCCC(c3ccnc4cc(Br)nn34)C2)c1` (centres unmarked) [Example 111, 2-Bromo-7-(1-(3-chlorobenzyl)piperidin-3-yl)pyrazolo[1,5-a]pyrimidine]: the Ki is above 1 µM on Human σ1 receptor and above 5 µM in assay [1].

`Clc1ccc(CN2CCCC(c3ccnc4cc(Br)nn34)C2)cc1Cl` (centres unmarked) [Example 112, 2-Bromo-7-(1-(3,4-dichlorobenzyl)piperidin-3-yl)pyrazolo[1,5-a]pyrimidine]: the Ki on Human σ1 receptor is above 1 µM; in assay [1], above 5 µM.

Regarding `Fc1ccc(CN2CCCC(c3ccnc4cc(Br)nn34)C2)cc1F` (centres unmarked) [Example 113, 2-Bromo-7-(1-(3,4-difluorobenzyl)piperidin-3-yl)pyrazolo[1,5-a]pyrimidine], the Ki is above 1 µM on Human σ1 receptor and 0.5 to 5 µM in assay [1].

Regarding `COc1ncccc1-c1cc2nccc(C3CCCN(Cc4ccc(Cl)cc4)C3)n2n1` (centres unmarked) [Example 114, 7-(1-(4-Chlorobenzyl)piperidin-3-yl)-2-(2-methoxypyridin-3-yl)pyrazolo[1,5-a]pyrimidine], the Ki at Human σ1 receptor is above 1 µM; in assay [1], above 5 µM.

On to `Oc1ncccc1-c1cc2nccc(C3CCCN(Cc4ccc(Cl)cc4)C3)n2n1` (centres unmarked) [Example 115, 3-(7-(1-(4-chlorobenzyl)piperidin-3-yl)pyrazolo[1,5-a]pyrimidin-2-yl)pyridin-2-ol], for which the results for the Ki (on Human σ1 receptor; in assay [1]) were above 1 µM and above 5 µM, respectively.

For `COc1ncccc1-c1cc2nccc(C3CCCN(Cc4cccc(Cl)c4)C3)n2n1` (centres unmarked) [Example 116, 7-(1-(3-Chlorobenzyl)piperidin-3-yl)-2-(2-methoxypyridin-3-yl)pyrazolo[1,5-a]pyrimidine], the Ki on Human σ1 receptor was above 1 µM; in assay [1], above 5 µM.

Turning to `Oc1ncccc1-c1cc2nccc(C3CCCN(Cc4cccc(Cl)c4)C3)n2n1` (centres unmarked) [Example 117, 3-(7-(1-(3-Chlorobenzyl)piperidin-3-yl)pyrazolo[1,5-a]pyrimidin-2-yl)pyridin-2-ol], the Ki is above 1 µM at Human σ1 receptor and above 5 µM in assay [1].

Regarding `COc1ncccc1-c1cc2nccc(C3CCCN(Cc4ccc(Cl)c(Cl)c4)C3)n2n1` (centres unmarked) [Example 118, 7-(1-(3,4-Dichlorobenzyl)piperidin-3-yl)-2-(2-methoxypyridin-3-yl)pyrazolo[1,5-a]pyrimidine], the Ki was above 1 µM on Human σ1 receptor and above 5 µM in assay [1].

Consider `COc1ncccc1-c1cc2nccc(C3CCCN(Cc4ccc(F)c(F)c4)C3)n2n1` (centres unmarked) [Example 119, 7-(1-(3,4-Difluorobenzyl)piperidin-3-yl)-2-(2-methoxypyridin-3-yl)pyrazolo[1,5-a]pyrimidine], for which the values for the Ki (at Human σ1 receptor; in assay [1]) were above 1 µM and above 5 µM, respectively.

Take `Clc1ccc(CN2CCCC(c3ccnc4c(CNCC5CCOCC5)c(Br)nn34)C2)cc1` (centres unmarked) [Example 120, 1-(2-Bromo-7-(1-(4-chlorobenzyl)piperidin-3-yl)pyrazolo[1,5-a]pyrimidin-3-yl)-N-((tetrahydro-2H-pyran-4-yl)methyl)methanamine]: the Ki (at Human σ1 receptor; in assay [1]) was below 0.5 µM throughout.

As to `Cc1nn2c(C3CCCN(Cc4ccc(Cl)cc4)C3)ccnc2c1-c1ccncc1` (centres unmarked) [Example 121, 7-(1-(4-Chlorobenzyl)piperidin-3-yl)-2-methyl-3-(pyridin-4-yl)pyrazolo[1,5-a]pyrimidine], the Ki at Human σ1 receptor was 0.5 to 1 µM; in assay [1], 0.5 to 5 µM.

As for `Cc1nn2c(C3CCCN(Cc4cccc(Cl)c4)C3)ccnc2c1-c1ccncc1` (centres unmarked) [Example 122, 7-(1-(3-Chlorobenzyl)piperidin-3-yl)-2-methyl-3-(pyridin-4-yl)pyrazolo[1,5-a]pyrimidine], the figures for the Ki (at Human σ1 receptor; in assay [1]) were above 1 µM and 0.5 to 5 µM, respectively.

Turning to `Cc1nn2c(C3CCCN(Cc4ccc(Cl)c(Cl)c4)C3)ccnc2c1-c1ccncc1` (centres unmarked) [Example 123, 7-(1-(3,4-Dichlorobenzyl)piperidin-3-yl)-2-methyl-3-(pyridin-4-yl)pyrazolo[1,5-a]pyrimidine], the Ki on Human σ1 receptor was above 1 µM; in assay [1], 0.5 to 5 µM.

Turning to `Cc1nn2c(C3CCCN(Cc4ccc(Cl)cc4Cl)C3)ccnc2c1-c1ccncc1` (centres unmarked) [Example 124, 7-(1-(2,4-Dichlorobenzyl)piperidin-3-yl)-2-methyl-3-(pyridin-4-yl)pyrazolo[1,5-a]pyrimidine], the Ki was 0.5 to 1 µM on Human σ1 receptor and above 5 µM in assay [1].

`Cc1nn2c(C3CCCN(Cc4ccc(F)c(F)c4)C3)ccnc2c1-c1ccncc1` (centres unmarked) [Example 125, 7-(1-(3,4-Difluorobenzyl)piperidin-3-yl)-2-methyl-3-(pyridin-4-yl)pyrazolo[1,5-a]pyrimidine]: the Ki at Human σ1 receptor is above 1 µM; in assay [1] it was 0.5 to 5 µM.

Take `Cc1nn2c(C3CCCN(Cc4ccc(C(F)(F)F)cc4)C3)ccnc2c1-c1ccncc1` (centres unmarked) [Example 126, 2-Methyl-3-(pyridin-4-yl)-7-(1-(4-(trifluoromethyl)benzyl)piperidin-3-yl)pyrazolo[1,5-a]pyrimidine]: the Ki was above 1 µM on Human σ1 receptor and above 5 µM in assay [1].

As for `Cc1nn2c(C3CCCN(CCC(C)C)C3)ccnc2c1-c1ccncc1` (centres unmarked) [Example 127, 7-(1-Isopentylpiperidin-3-yl)-2-methyl-3-(pyridin-4-yl)pyrazolo[1,5-a]pyrimidine], the Ki on Human σ1 receptor was below 0.5 µM; in assay [1], above 5 µM.

As to `Cc1nn2c(C3CCCN(Cc4ccc(Cl)cc4)C3)ccnc2c1-c1cccc(C(=O)N(C)C)c1` (centres unmarked) [Example 128, 3-(7-(1-(4-Chlorobenzyl)piperidin-3-yl)-2-methylpyrazolo[1,5-a]pyrimidin-3-yl)-N,N-dimethylbenzamide], the Ki on Human σ1 receptor was above 1 µM; in assay [1], above 5 µM.

As for `Cc1nn2c(C3CCCN(Cc4ccc(Cl)cc4)C3)ccnc2c1-c1ccc(C(N)=O)cc1` (centres unmarked) [Example 129, 4-(7-(1-(4-Chlorobenzyl)piperidin-3-yl)-2-methylpyrazolo[1,5-a]pyrimidin-3-yl)benzamide], the Ki at Human σ1 receptor was above 1 µM; in assay [1] it was above 5 µM.

On to `Cc1nn2c(C3CCCN(Cc4ccc(Cl)cc4)C3)ccnc2c1-c1cncnc1` (centres unmarked) [Example 130, 7-(1-(4-Chlorobenzyl)piperidin-3-yl)-2-methyl-3-(pyrimidin-5-yl)pyrazolo[1,5-a]pyrimidine], for which the Ki at Human σ1 receptor was above 1 µM; in assay [1], 0.5 to 5 µM.

Consider `Cc1nn2c(C3CCCN(Cc4ccc(Cl)cc4)C3)ccnc2c1-c1cnc(N)nc1` (centres unmarked) [Example 131, 5-(7-(1-(4-Chlorobenzyl)piperidin-3-yl)-2-methylpyrazolo[1,5-a]pyrimidin-3-yl)pyrimidin-2-amine], for which the Ki on Human σ1 receptor was above 1 µM; in assay [1], above 5 µM.

Regarding `Cc1nn2c(C3CCCN(Cc4ccc(Cl)cc4)C3)ccnc2c1-c1cnn(C)c1` (centres unmarked) [Example 132, 7-(1-(4-Chlorobenzyl)piperidin-3-yl)-2-methyl-3-(1-methyl-1H-pyrazol-4-yl)pyrazolo[1,5-a]pyrimidine], the values for the Ki (on Human σ1 receptor; in assay [1]) were above 1 µM and 0.5 to 5 µM, respectively.

Turning to `Cc1noc(C)c1-c1c(C)nn2c(C3CCCN(Cc4ccc(Cl)cc4)C3)ccnc12` (centres unmarked) [Example 133, 4-(7-(1-(4-Chlorobenzyl)piperidin-3-yl)-2-methylpyrazolo[1,5-a]pyrimidin-3-yl)-3,5-dimethylisoxazole], the Ki was above 1 µM on Human σ1 receptor and above 5 µM in assay [1].

Turning to `Cc1nn2c(C3CCCN(Cc4ccc(Cl)cc4)C3)ccnc2c1-c1ccnc(CO)c1` (centres unmarked) [Example 134, (4-(7-(1-(4-Chlorobenzyl)piperidin-3-yl)-2-methylpyrazolo[1,5-a]pyrimidin-3-yl)pyridin-2-yl)methanol], the Ki at Human σ1 receptor is 0.5 to 1 µM; in assay [1] it was above 5 µM.

With `Cc1nn2c(C3CCCN(Cc4ccc(Cl)cc4)C3)ccnc2c1-c1ccc(CO)nc1` (centres unmarked) [Example 135, (5-(7-(1-(4-Chlorobenzyl)piperidin-3-yl)-2-methylpyrazolo[1,5-a]pyrimidin-3-yl)pyridin-2-yl)methanol], the Ki on Human σ1 receptor was above 1 µM; in assay [1], above 5 µM.

In the case of `CCOc1cc(-c2c(C)nn3c(C4CCCN(Cc5ccc(Cl)cc5)C4)ccnc23)ccn1` (centres unmarked) [Example 136, 7-(1-(4-Chlorobenzyl)piperidin-3-yl)-3-(2-ethoxypyridin-4-yl)-2-methylpyrazolo[1,5-a]pyrimidine], the values for the Ki (at Human σ1 receptor; in assay [1]) were above 1 µM and above 5 µM, respectively.

With `Cc1nn2c(C3CCCN(Cc4ccc(Cl)cc4)C3)ccnc2c1-c1ccnc(OCC2CC2)c1` (centres unmarked) [Example 137, 7-(1-(4-Chlorobenzyl)piperidin-3-yl)-3-(2-(cyclopropylmethoxy)pyridin-4-yl)-2-methylpyrazolo[1,5-a]pyrimidine], the Ki on Human σ1 receptor is above 1 µM; in assay [1], above 5 µM.

`Cc1nn2c(C3CCCN(Cc4ccc(Cl)cc4)C3)ccnc2c1-c1cncn1C` (centres unmarked) [Example 138, 7-(1-(4-Chlorobenzyl)piperidin-3-yl)-2-methyl-3-(1-methyl-1H-imidazol-5-yl)pyrazolo[1,5-a]pyrimidine]: the Ki at Human σ1 receptor is above 1 µM; in assay [1] it was above 5 µM.

On to `Cc1nn2c(C3CCCN(Cc4ccc(Cl)cc4)C3)ccnc2c1-c1ccncn1` (centres unmarked) [Example 139, 7-(1-(4-Chlorobenzyl)piperidin-3-yl)-2-methyl-3-(pyrimidin-4-yl)pyrazolo[1,5-a]pyrimidine], for which the Ki on Human σ1 receptor was above 1 µM; in assay [1] it was above 5 µM.

In the case of `Cc1nn2c(C3CCCN(Cc4ccc(Cl)cc4)C3)ccnc2c1-c1ccnc(N)n1` (centres unmarked) [Example 140, 4-(7-(1-(4-Chlorobenzyl)piperidin-3-yl)-2-methylpyrazolo[1,5-a]pyrimidin-3-yl)pyrimidin-2-amine], the Ki on Human σ1 receptor was above 1 µM; in assay [1] it was 0.5 to 5 µM.

For the compound `Cc1nn2c(C3CCCN(Cc4ccc(Cl)cc4)C3)ccnc2c1N(C)C` (centres unmarked) [Example 141, 7-(1-(4-Chlorobenzyl)piperidin-3-yl)-N,N,2-trimethylpyrazolo[1,5-a]pyrimidin-3-amine], the Ki on Human σ1 receptor is below 0.5 µM; in assay [1], above 5 µM.

Values taken from patent publication US12617797B2, “Substituted pyrazolo [1,5-a]pyrimidines having multimodal activity against pain” (ESTEVE PHARMACEUTICALS, S.A., priority 2020, dated 2026).
